Results published in patent US20030215840A1, “Methods and compositions for treating cardiovascular disease using 1682, 6169, 6193, 7771, 14395, 29002, 33216, 43726, 69292, 26156, 32427, 2402, 7747, 1720, 9151, 60491, 1371, 7077, 33207, 1419, 18036, 16105, 38650, 14245, 58848, 1870, 25856, 32394, 3484, 345, 9252, 9135, 10532, 18610, 8165, 2448, …” (Millennium Pharmaceuticals, Inc., priority 2002, published 2003).

Legend:
29002 mRNA [1] = experiment: TaqMan analysis of 29002 mRNA in stimulated endothelial cells; format: cell-based
Experimental: (§1) This example describes the TaqMan™ procedure. […] The TaqMan™ probe includes the oligonucleotide with a fluorescent reporter dye covalently linked to the 5′ end of the probe (such as FAM (6-carboxyfluorescein), TET (6-carboxy-4,7,2′,7′-tetrachlorofluorescein), JOE (6-carboxy-4,5-dichloro-2,7-dimethoxyfluorescein), or VIC) and a quencher dye (TAMRA (6-carboxy-N,N,N′,N′-tetramethylrhodamine) at the 3′ end of the probe.
(§2) RNA was prepared using the trizol method and treated with DNase to remove contaminating genomic DNA. cDNA was synthesized using standard techniques.

32135 mRNA = details: niacin models
Source text: (§3) This example describes the TaqMan™ procedure. The Taqman™ procedure is a quantitative, reverse transcription PCR-based approach for detecting mRNA. The RT-PCR reaction exploits the 5′ nuclease activity of AmpliTaq Gold™ DNA Polymerase to cleave a TaqMan™ probe during PCR. Briefly, cDNA was generated from the samples of interest, e.g., heart, kidney, liver, skeletal muscle, and various vessels, and used as the starting material for PCR amplification. In addition to the 5′ and 3′ gene-specific primers, a gene-specific oligonucleotide probe (complementary to the region being amplified) was included in the reaction (i.e., the Taqman™ probe). […]
(§4) During the PCR reaction, cleavage of the probe separates the reporter dye and the quencher dye, resulting in increased fluorescence of the reporter. Accumulation of PCR products is detected directly by monitoring the increase in fluorescence of the reporter dye. When the probe is intact, the proximity of the reporter dye to the quencher dye results in suppression of the reporter fluorescence. […]

17799 mRNA = details: niacin marmoset models
Source text: as §3, §4

6169 mRNA = experiment: TaqMan analysis of 6169 mRNA in an African Green Monkey model of atherosclerosis; format: in vivo
Experimental: as §1, §2

21833 mRNA = experiment: TaqMan analysis of 21833 in cultured human monocytes and macrophages; format: cell-based; details: after stimulation
Experimental: as §1, §2

29002 mRNA [2] = experiment: TaqMan analysis of 29002 mRNA in stimulated macrophages; format: cell-based
Experimental: as §1, §2

## CC[C@H](C)C(=O)O[C@H]1CCC=C2C=C[C@H](C)[C@H](CC[C@@H]3C[C@@H](O)CC(=O)O3)[C@H]21 [mevastatin, reference compound]
29002 mRNA [1]
  29002 mRNA expression: down-regulated

## O=C(O)c1cccnc1 [niacin]
32135 mRNA
  32135 mRNA expression: repressed
17799 mRNA
  17799 mRNA expression: repressed

## n-3 polyunsaturated fatty acid
6169 mRNA
  6169 mRNA expression: repressed

B1: interferon gamma: interferon gamma used to stimulate monocytes and macrophages (protein, UniProt P01579 24-161, looked up)
Interferon gamma: QDPYVKEAENLKKYFNAGHSDVADNGTLFLGILKNWKEESDRKIMQSQIVSFYFKLFKNFKDDQSIQKSVETIKEDMNVKFFNSNKKKRDDFEKLTNYSVTDLNVQRKAIHELIQVMAELSPAAKTGKRKRSQMLFRG
21833 mRNA
  21833 expression: upregulated

B2: CD40 ligand: CD40 ligand used to stimulate macrophages (protein, UniProt P29965 113-261, looked up)
CD40 ligand, soluble form: MQKGDQNPQIAAHVISEASSKTTSVLQWAEKGYYTMSNNLVTLENGKQLTVKRQGLYYIYAQVTFCSNREASSQAPFIASLCLKSPGRFERILLRAANTHSSAKPCGQQSIHLGGVFELQPGASVFVNVTDPSQVSHGTGFTSFGLLKL
29002 mRNA [2]
  29002 mRNA expression: upregulated
21833 mRNA
  21833 expression: upregulated
